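How tested: cells in 96-well plates exposed to compound for 48 hours at five concentrations. The concentration for full growth arrest is given as TGI.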 Where a SMILES comes first, the peptide text is derived from it. The star is where a group is joined. Boc = CC(C)(C)OC(=O)*
Legend:
Assay in all cases: growth of human tumour cells (NCI), 48 h
[1] = tested on: OVCAR-3 ovarian
[2] = tested on: HCT-15 colon
[3] = tested on: SK-OV-3 ovarian
[4] = tested on: MALME-3M melanoma
[5] = tested on: NCI-H460 lung
[6] = tested on: SR leukemia
[7] = tested on: LOX IMVI melanoma
[8] = tested on: MOLT-4 leukemia
[9] = tested on: SN12C renal
[10] = tested on: LXFL 529 NSCLC
[11] = tested on: SNB-78 CNS

SMILES | TGI [1] | TGI [2] | TGI [3] | TGI [4] | TGI [5] | TGI [6] | TGI [7] | TGI [8] | TGI [9] | TGI [10] | TGI [11]
CC(C)(C)OC(=O)NCC(=O)NCC(=O)NCC(=O)NCC(=O)O (Boc-GGGG-OH) | > 100 µM | > 100 µM | > 100 µM | > 100 µM | > 100 µM | > 100 µM | > 100 µM | > 100 µM | > 100 µM | – | –
CCCn1c(CN(Cc2nc3ccccc3n2CCC)Cc2nc3ccccc3n2CCC)nc2ccccc21 | > 30.4 µM | > 43.4 µM | > 100 µM | 23.3 µM | 18.5 µM | 11.8 µM | 18.9 µM | 40.8 µM | 6.81 µM | – | –
CCOC(=O)/C=C(\C)c1ccc(C)cc1C | – | 88.6 µM | – | 53.9 µM | > 100 µM | 37.3 µM | 31.3 µM | > 100 µM | > 100 µM | 28.6 µM | > 100 µM
CN(C)c1nc(=NCc2ccccc2)ss1 | > 10 µM | > 10 µM | > 10 µM | > 10 µM | > 10 µM | 6.37 µM | > 10 µM | > 6.19 µM | > 10 µM | – | –
Cc1c(S(=O)(=O)/N=C(\N)Nc2ccc(Cl)cc2)sc2ccc(Cl)cc12 | 36.5 µM | 44.6 µM | 86.8 µM | 39.8 µM | 33.6 µM | > 100 µM | 36.3 µM | 78.1 µM | 31.2 µM | – | –
O=C1CN2C(c3ccccc3)=NN(c3ccc([N+](=O)[O-])cc3)C2(c2ccccc2)c2cc(Cl)ccc2N1CC1CC1 (stereo not drawn) | > 100 µM | > 100 µM | > 100 µM | > 100 µM | > 100 µM | > 100 µM | > 100 µM | > 100 µM | > 100 µM | – | –
CC12CC(=O)C3C(C(=O)C1)C32C (stereo not drawn) | > 100 µM | > 100 µM | > 100 µM | > 100 µM | > 100 µM | > 100 µM | > 100 µM | > 100 µM | > 100 µM | – | –
C/C(CC1C2CCCC1C2)=N\NC(N)=O (stereo not drawn) | > 100 µM | > 100 µM | > 100 µM | > 100 µM | > 100 µM | > 100 µM | > 100 µM | > 100 µM | > 100 µM | – | –
CCCCC1c2c([nH]c3ccccc23)C2C(=O)N(c3ccc(OC)cc3)C(=O)C2C1CCC (stereo not drawn) | 6.26 µM | > 10 µM | > 10 µM | 9.42 µM | > 10 µM | 8.22 µM | > 10 µM | 7.97 µM | 4.04 µM | – | –
CCN(C(=S)N[C@@H](Cc1ccccc1)C(=O)N[C@@H](CC(C)C)C(=O)OC)c1ccccc1 | > 100 µM | > 100 µM | > 100 µM | > 100 µM | > 100 µM | 61.6 µM | > 100 µM | 81.2 µM | > 100 µM | – | –
O=P(c1ccccc1)(c1ccccc1)N1O[C@@H](c2ccccc2)C=C[C@H]1c1ccccc1 | 27.8 µM | 26.3 µM | 33.4 µM | 29.2 µM | 20.1 µM | 50.4 µM | 24.1 µM | 27.5 µM | 17.5 µM | – | –
CO[C@]12CC(=O)C3(C(C[C@H]4CC5CC=C6C[C@@H](OC(C)=O)CC[C@]6(OC(C)=O)C5C[C@@]43C)C1)C1C[C@H]3[C@@H]4CC=C5C[C@@H](OC(C)=O)CC[C@]5(OC(C)=O)[C@H]4CC[C@]3(C)C12 (stereo partly drawn) | 56.4 µM | > 100 µM | > 100 µM | 35 µM | 47.8 µM | > 100 µM | 53.4 µM | 63.3 µM | 29.8 µM | – | –
